Laboratory results published in patent publication US20160102317A1, “PLANTS HAVING INCREASED TOLERANCE TO HERBICIDES” (BASF SE, priority 2013, published 2016).

Key:
[1] = test system: Arabidopsis overexpression line AtHPPD (Seq ID: 53) M335H, P336G, E363Q; experiment: Arabidopsis growth inhibition in 48-well plates, tolerance factor; type: in vivo, Arabidopsis thaliana; details: plant growth IC50 of transgenic / wild-type plants
Experimental: (§1) Arabidopsis thaliana is transformed with HPPD or HST sequences by floral dip method as described by McElver and Singh (WO 2008/124495). Transgenic Arabidopsis plants are subjected to TaqMan analysis for analysis of the number of integration loci.
(§2) Depending on the species, the plants are kept at 10-25° C. or 20-35° C. The test period extends over 3 weeks. During this time, the plants are tended and their response to the individual treatments is evaluated. Herbicide injury evaluations are taken at 2 and 3 weeks after treatment. Plant injury is rated on a scale of 0 to 9, 0 being no injury and 9 being complete death. Tolerance to HPPD-inhibiting herbicides can also be assessed in Arabidopsis. In this case transgenic Arabidopsis thaliana plants are assayed for improved tolerance to HPPD-inhibiting herbicides in 48-well plates. Seeds are surface sterilized by stirring for 5 min in ethanol+water (70+30 by volume), rinsing one time with ethanol+water (70+30 by volume) and two times with a sterile, deionized water. The seeds are resuspended in 0.1% agar dissolved in water (w/v). Four to five seeds per well are plated on solid nutrient medium consisting of half-strength Murashige Skoog nutrient solution, pH 5.8 (Murashige and Skoog (1962) Physiologia Plantarum 15: 473-497). Compounds are dissolved in dimethylsulfoxid (DMSO) and added to the medium prior solidification (final DMSO concentration 0.1%). Multi well plates are incubated in a growth chamber at 22° C., 75% relative humidity and 110 μmol Phot*m-2*s-1 with 14:10 h light:dark photoperiod. Seven to ten days after seeding growth inhibition is evaluated by comparison to wild-type plants. Tolerance factor is calculated by dividing the plant growth IC50 value of transgenic plants containing a HPPD and/or HST sequence by that of wild-type plants.

[2] = test system: Arabidopsis overexpression line HvHPPD (SEQ ID: 2); experiment: as above; type: in vivo, Arabidopsis thaliana; details: plant growth IC50 of transgenic / wild-type plants
Experimental: as §1, §2

[3] = test system: Arabidopsis overexpression line AtHPPD (Seq ID: 53) F381I; experiment: as above; type: in vivo, Arabidopsis thaliana; details: plant growth IC50 of transgenic / wild-type plants
Experimental: as §1, §2

[4] = test system: Arabidopsis overexpression line HvHPPD (SEQ ID: 2) L320H, P321A; experiment: as above; type: in vivo, Arabidopsis thaliana; details: plant growth IC50 of transgenic / wild-type plants
Experimental: as §1, §2

[5] = test system: Arabidopsis overexpression line Picrophilus HPPD; experiment: as above; type: in vivo, Arabidopsis thaliana; details: plant growth IC50 of transgenic / wild-type plants
Experimental: as §1, §2

[6] = test system: Arabidopsis overexpression line AtHPPD (Seq ID: 53); experiment: as above; type: in vivo, Arabidopsis thaliana; details: plant growth IC50 of transgenic / wild-type plants
Excerpt: Rows A-F are individual events. Non-transformed control plants are marked as wild-type (WT). The HPPD-inhibiting herbicide used refers to (NE)-8-chloro-N-(4-methoxy-1,2,5-oxadiazol-3-ylidene)-4,4-dimethyl-1,1-dioxo-2,3-dihydrothiochromene-7-carboxamide
as §1
Depending on the species, the plants are kept at 10-25° C. or 20-35° C. The test period extends over 3 weeks. During this time, the plants are tended and their response to the individual treatments is evaluated. Herbicide injury evaluations are taken at 2 and 3 weeks after treatment. Plant injury is rated on a scale of 0 to 9, 0 being no injury and 9 being complete death. Tolerance to HPPD-inhibiting herbicides can also be assessed in Arabidopsis. In this case transgenic Arabidopsis thaliana plants are assayed for improved tolerance to HPPD-inhibiting herbicides in 48-well plates. […] Seven to ten days after seeding growth inhibition is evaluated by comparison to wild-type plants. Tolerance factor is calculated by dividing the plant growth IC50 value of transgenic plants containing a HPPD and/or HST sequence by that of wild-type plants.

[7] = biological target: T1, Hordeum HPPD (SEQ ID NO:2), wild-type (Hordeum vulgare, UniProt O48604, A164G/R146V/R147D/R148G); experiment: HPPD activity assay (HGA by HPLC), wild-type enzyme characterization; type: biochemical
T1 construct: His (N); made in house; host or cells: E. coli BL21 (DE3)
Experimental: HPPD produces homogentisic acid and CO2 from 4-hydroxyphenylpyruvate (4-HPP) and 02. The activity assay for HPPD is based on the analysis of homogentisic acid by reversed phase HPLC. The assay mixture can contain 150 mM potassium phosphate buffer pH 7.0, 50 mM L-ascorbic acid, 100 μM Catalase (Sigma-Aldrich), 1 μM FeSO4 and 0.2 units of purified HPPD enzyme in a total volume of 505 μl. 1 unit is defined as the amount of enzyme that is required to produce 1 nmol of HGA per minute at 20° C.
After a preincubation of 30 min the reaction is started by adding 4-HPP to a final concentration of 0.05 mM. The reaction is allowed to proceed for 45 min at room temperature. The reaction is stopped by the addition of 50 μl of 4.5 M phosphoric acid. The sample is filtered using a […] pore size PVDF filtration device.
5 μl of the cleared sample is analyzed on an UPLC HSS T3 column (particle size 1.8 μm, dimensions 2.1×50 mm; Waters) by isocratic elution using 90% 20 mM NaH2PO4 pH 2.2, 10% methanol (v/v).
HGA is detected electrochemically at 750 mV (mode: DC; polarity: positive) and quantified by integrating peak areas (Empower software; Waters).
Inhibitors are dissolved in DMSO (dimethylsulfoxide) to a concentration of 0.5 mM. From this stock solution serial five-fold dilutions are prepared in DMSO, which are used in the assay. The respective inhibitor solution accounts for 1% of the assay volume. […] Activities are normalized by setting the uninhibited enzyme activity to 100%. IC50 values are calculated using non-linear regression.
Using methods which are described in the above examples or well known in the art, purified, recombinant wild-type HPPD enzymes are characterized with respect to their kinetic properties and sensitivity towards HPPD inhibiting herbicides. Apparent michaelis constants (Km) and maximal reaction velocities (Vmax) are calculated by non-linear regression with the software GraphPad Prism 5 (GraphPad Software, La Jolla, USA) using a substrate inhibition model. […] Weighted means (by standard error) of Km and IC50 values are calculated from at least three independent experiments.
Field performance of the HPPD enzyme, which is used as a herbicide tolerance trait, may depend not only on its lack of sensitivity towards HPPD inhibiting herbicides but also on its activity. To assess the potential performance of a herbicide tolerance trait a tolerance index (TI) is calculated using the following formula: […]
Easy comparison and ranking of each trait is enabled by normalizing tolerance indexes on Arabidopsis wild-type HPPD.

[8] = Table 16, Hordeum HPPD variant Wild-type

T1 sequence (O48604 whole entry R146V/R147D/R148G/A164G): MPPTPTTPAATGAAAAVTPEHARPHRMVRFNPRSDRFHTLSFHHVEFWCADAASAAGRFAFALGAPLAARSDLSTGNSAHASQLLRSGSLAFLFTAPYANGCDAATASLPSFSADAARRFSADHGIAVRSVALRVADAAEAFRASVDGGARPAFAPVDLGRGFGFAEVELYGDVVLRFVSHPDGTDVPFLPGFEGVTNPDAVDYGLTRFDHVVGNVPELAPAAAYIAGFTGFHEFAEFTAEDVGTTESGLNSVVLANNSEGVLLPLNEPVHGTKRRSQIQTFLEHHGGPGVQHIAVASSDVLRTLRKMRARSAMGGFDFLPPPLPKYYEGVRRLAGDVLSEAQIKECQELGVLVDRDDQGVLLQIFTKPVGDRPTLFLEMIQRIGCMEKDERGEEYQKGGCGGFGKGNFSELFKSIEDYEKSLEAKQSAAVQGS

With COc1no[nH]/c1=N/C(=O)c1ccc2c(c1Cl)S(=O)(=O)CCC2(C)C [Inhibitor 1, (NE)-8-chloro-N-(4-methoxy-1,2,5-oxadiazol-3-ylidene)-4,4-dimethyl-1,1-dioxo-2,3-dihydrothiochromene-7-carboxamide] the “Tolerance factor towards Inhibitor 1” value [1] was 15.8, the “Tolerance factor towards Inhibitor 1” value [2] was 76 and the “Tolerance factor towards Inhibitor 1” value [3] was 37.5. For the same compound, the “Tolerance factor towards Inhibitor 1” value [4] was 85, the “Tolerance factor towards Inhibitor 1” value [5] was 4.5 and the “Tolerance factor towards Inhibitor 1” value [6] was 6.4. The Ki [7] was 0.038 µM, the “TI Inhibitor 1 (normalized tolerance index)” value ([7]; Table 12, Hordeum HPPD, normalized to reference SEQ ID NO:53) was 0.9 and the “TI Inhibitor 1 (normalized tolerance index)” value [7, 8] was 1.
For Cc1c(C(=O)Nc2nnnn2C)ccc2c1C(=O)C(C)(C)CS2(=O)=O [Inhibitor 2, 3,3,5-trimethyl-N-(1-methyltetrazol-5-yl)-1,1,4-trioxo-2H-thiochromene-6-carboxamide], the “Tolerance factor towards Inhibitor 2” value [1] was 60.8, the “Tolerance factor towards Inhibitor 2” value [2] was 10.2 and the “Tolerance factor towards Inhibitor 2” value [3] was 60.8. For the same compound, the “Tolerance factor towards Inhibitor 2” value [4] was 7.9, the “Tolerance factor towards Inhibitor 2” value [5] was 2.6 and the “Tolerance factor towards Inhibitor 2” value [6] was 3. For the same compound, the “TI Inhibitor 2 (normalized tolerance index)” value [7, 8] was 1.
